Experimental data published in paper PMC6906431, “Selective small molecule PARG inhibitor causes replication fork stalling and cancer cell death” (Nature Communications, 2019).
“And” between values parts separate entries of the source, which are not always exact repeats. Equal entries are not always repeated.

Assays:
Human PARG = target: T1, Human PARG (Homo sapiens, UniProt Q86W56); experiment: Gel-based PARG activity assay; format: biochemical
T1 construct: The human PARG (hPARG) catalytic domain (residues 389–976) was cloned in pET28a (Novagen); His-tag (N); made in house; host or cells: E. coli Rosetta
Procedure: PARP1C (2 μM) is enzymatically auto-modified in a reaction containing the PARP1 DBD (2 μM), a 24 mer nicked DNA oligo (2 μM), and NAD^+ (300 μM) for 1 h at 37 °C, as described previously. Human PARG^389–976 (1 nM) was pre-incubated with compounds for 1 h at room temperature. The reaction was initiated by the addition of PARylated PARP1 (final concentration of 500 nM) and quenched after 30 min incubation at room temperature by adding SDS-PAGE sample buffer. The gel was visualized by sypro-ruby staining[18] and the retained PARylated PARP1C species were quantified using ImageJ[59]. PARylated PARP1C that migrates slower than unmodified PARP1C was quantified. […] The IC50 values were determined by fitting the dose-response data for each compound to a four-parameter logistic equation using SigmaPlot (Systat Software Inc.).
To test the specificity of JA2131, human PARG^389–976 (1 nM) was pre-incubated with JA2131 (5, 10, and 20 μM) in the presence and absence of 0.1% Triton-X 100 or 0.1 mg/ml BSA for 1 h at room temperature. The reaction was initiated, quenched, visualized, and quantified as described above. […]
PARG activity assay. […]
PARP1 (500 nM). The reaction was quenched after a 30 -minu te in cu ba tion a t roo m te mpe ra tu re by adding SDS-PA GE sa mp le bu f fe r. PARylated PARP1C runs as a smear on SDS -PAGE that is reduced to a single band by PARG treatment. […]
2). (b) Qu an t if ica t ion o f the dose-response PARG inhibition by JA2 -3 using the gel-based PARG activity assay. hPARG (1 nM) was preincubated with increasing concentrations (0.032 – 1 µM) of JA2-3 f o r 1 hour at room temperature before PARylated PARP1C (500 nM) was added. The reaction was quenched after a 30-minu te incubation at room temperature. PARylated PARP1C migrates slower than unmodified PARP1C and was quantified using ImageJ. […] The rate of the PARG-dependent signal loss in the TR-FRET PAR turnover assay is not equivalent to the steady-state rate of PAR turnover, because the TR-FRET assay can’t detect signal loss until the length of PAR chains become shorter than 7 ADP-ribose units. Therefore, we used the gel-based PARG activity assay to accurately determine the IC50 values throughout the manuscript .

PCNA in PC3 cells = target: T2, PCNA in PC3 cells (Homo sapiens, UniProt P12004); experiment: Cellular thermal shift assay (CETSA), control protein; format: cell-based; settings: 10 μM JA2131
T2 construct: endogenous in cells; host or cells: PC3
Procedure: CETSA was performed as described by Molina et al.[44]. Briefly, PC3 cells were treated with 10 μM JA2131 or an equivalent volume of DMSO for 2 h, washed three times with PBS and extracted for total cell lysate. Ten percent glycerol was added to the samples before subjecting to heat. […] Then, samples were centrifuged at 14,000 rpm for 20 min at 4 °C. Supernatants were carefully removed and analyzed by western blotting analysis.
Supplementary Fig. 14: Representative CETSA western blots for PARG and PCNA. PC3 cells
treated with 10 µM JA2131 or DMSO were temperature shocked as described in Materials and […]
PCNA antibody. Anti -Histone H3 was used as loading control.
(1 picture or pasted object on this page, not shown here)

MDA-MB-231 cells = experiment: Clonogenic survival assay; format: cell-based, human; settings: 10 µM JA2131 2 h; 3 Gy IR; ~2 weeks

T1 sequence (Q86W56 389-976): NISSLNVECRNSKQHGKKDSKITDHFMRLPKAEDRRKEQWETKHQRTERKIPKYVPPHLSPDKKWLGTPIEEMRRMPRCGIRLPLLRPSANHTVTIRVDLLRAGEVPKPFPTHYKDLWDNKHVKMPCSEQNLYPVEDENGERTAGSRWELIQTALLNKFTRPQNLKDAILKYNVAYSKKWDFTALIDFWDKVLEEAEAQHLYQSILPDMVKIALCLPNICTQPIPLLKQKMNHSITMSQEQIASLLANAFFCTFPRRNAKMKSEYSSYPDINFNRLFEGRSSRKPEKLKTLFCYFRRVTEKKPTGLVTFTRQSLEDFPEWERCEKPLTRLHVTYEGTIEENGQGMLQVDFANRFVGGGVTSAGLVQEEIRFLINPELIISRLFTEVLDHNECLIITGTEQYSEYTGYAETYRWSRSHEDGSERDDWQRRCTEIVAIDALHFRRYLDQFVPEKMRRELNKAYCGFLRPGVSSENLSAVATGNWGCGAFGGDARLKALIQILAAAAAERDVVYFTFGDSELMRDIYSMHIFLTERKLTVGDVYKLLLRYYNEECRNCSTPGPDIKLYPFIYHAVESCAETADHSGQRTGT
T2 sequence (P12004 whole entry): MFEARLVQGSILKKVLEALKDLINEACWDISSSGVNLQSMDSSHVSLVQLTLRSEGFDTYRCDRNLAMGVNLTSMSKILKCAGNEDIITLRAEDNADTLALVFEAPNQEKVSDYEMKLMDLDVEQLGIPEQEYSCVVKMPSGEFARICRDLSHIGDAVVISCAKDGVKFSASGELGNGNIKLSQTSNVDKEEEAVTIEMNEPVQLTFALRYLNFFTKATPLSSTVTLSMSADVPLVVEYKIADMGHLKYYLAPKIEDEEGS

Structure (SMILES): Cn1c(=S)c2[nH]c(SCCN3CCOCC3)nc2n(C)c1=O [JA2131]
- potency difference JA2131 (6´-thiocarbonyl) vs JA2120 (6´-carbonyl) (Human PARG): more than 50 fold
- effect of detergent or nonspecific protein on PARG inhibition (Human PARG; JA2131 5, 10, 20 μM, 0.1% Triton-X 100 or 0.1 mg/ml BSA): Neither the addition of Triton-X 100 nor BSA significantly altered the inhibitory potency
- inhibition at 0.0488281 µM (Human PARG; [L] 0.0488281 uM): 13.8%
- inhibition at 0.0976562 µM (Human PARG; [L] 0.0976562 uM): 26.2%
- inhibition at 0.195312 µM (Human PARG; [L] 0.195312 uM): 34.6%
- inhibition at 0.390625 µM (Human PARG; [L] 0.390625 uM): 58.8%
- inhibition at 0.78125 µM (Human PARG; [L] 0.78125 uM): 62.5%
- inhibition at 1.5625 µM (Human PARG; [L] 1.5625 uM): 75.5%
- inhibition at 3.125 µM (Human PARG; [L] 3.125 uM): 84.3%
- inhibition at 6.25 µM (Human PARG; [L] 6.25 uM): 98.7%
- inhibition at 12.5 µM (Human PARG; [L] 12.5 uM): 99.5%
- inhibition at 25 µM (Human PARG; [L] 25 uM): 104%
- inhibition at 50 µM (Human PARG; [L] 50 uM): 94%
- IC50 (Human PARG; hPARG 1 nM, PARylated PARP1C 500 nM, 30 min): 400 nM
- change in thermal stability of PCNA control (PCNA in PC3 cells): no significant change in thermal stability
- Band intensities, anti-PCNA (PCNA in PC3 cells; Temperature 4 °C): 100
- Band intensities, anti-PCNA (PCNA in PC3 cells; Temperature 51 °C): 91.1484
- Band intensities, anti-PCNA (PCNA in PC3 cells; Temperature 62 °C): 38.4112
- Band intensities, anti-PCNA (PCNA in PC3 cells; Temperature 68 °C): 12.3183
- Band intensities, anti-PCNA (PCNA in PC3 cells; Temperature 72 °C): 4.285
- Band intensities, anti-PCNA (PCNA in PC3 cells; Temperature 77 °C): 3.2332
- Band intensities, anti-PCNA (PCNA in PC3 cells; Temperature 85 °C): 4.145
- clonogenic survival (Exp-1 to Exp-4) (MDA-MB-231 cells): 45.2569 and 36.8075 and 26.8698 and 36.3114
